According to patent publication US20230020663A1, “SULFONAMIDE INHIBITORS AS CTPS1 INHIBITORS” (Step Pharma S.A.S., priority 2019, published 2023):

test system: human CTPS1 versus CTPS2; experiment: Human CTPS1 versus CTPS2 selectivity assessment by RapidFire/MS analysis; type: biochemical; conditions: Table 26; RapidFire/MS IC50 ratio
Description: Human CTPS1 versus CTPS2 Selectivity Assessment by RapidFire/MS Analysis.
The enzyme inhibitory activities against each target isoform of interest may be determined for the compounds of the invention using an optimised RapidFire high-throughput mass spectrometry (RF/MS) assay format. RF/MS assays for both human CTPS1 and CTPS2 may be performed in assay buffer consisting of 50 mM HEPES (Merck), 20 mM MgCl2, 5 mM KCl, 1 mM DTT, 0.01% Tween-20, pH to 8.0 accordingly. Human full-length active C-terminal FLAG-His-tag CTPS1 (UniProtKB—P17812, CTPS[1-591]-[…]) may be obtained from Proteros biostructures GmbH. Human full length active C-terminal FLAG-His-Avi tagged CTPS2 (UniProtKB-Q9NRF8, CTPS2 [1-586]-[…]) may be obtained from Harker Bio.
Human CTPS (1 or 2) protein may be prepared in 1× assay buffer to the final working protein concentration required for the reaction. A 2 uL volume per well of 2×CTPS (1 or 2) protein may be mixed with 40 nL of compound using acoustic (ECHO) delivery and incubated for 10 minutes at 25° C. Each isoform enzymatic reaction may be subsequently initiated by addition of 2 uL per well of a 2× substrate mix in assay buffer. For hCTPS1: ATP (0.3 mM), UTP (0.2 mM), GTP (0.07 mM) and L-glutamine (0.1 mM). For hCTPS2: ATP (0.1 mM), UTP (0.04 mM), GTP (0.03 mM) and L-glutamine (0.1 mM). Each mixture may be incubated for an appropriate amount of time per isoform within the determined linear phase of the reaction at 25′C. A 60 uL volume of stop solution (1% formic acid with 0.5 uM ^13C9-^15N3-CTP in H2O) may be added and the plate immediately heat-sealed and centrifuged for 10 minutes at 4,000 rpm. Following centrifugation, plates may be loaded onto the Agilent RapidFire microfluidic solid phase extraction system coupled to an API4000 triple quadrupole mass spectrometer (RF/MS) for analysis.
In all cases, the enzyme converts UTP to CTP. Highly specific and sensitive multiple reaction monitoring (MRM) MS methods may be optimised for the detection of the enzymatic reaction product, CTP, and the stable isotope labelled product standard ^13C9-^15N3-CTP. Readout for data analysis may be calculated as the ratio between the peak area of the product CTP and the internal standard ^13C9-^15N3-CTP. For data reporting, the following equation may be used: […]
For each screening plate, the means of the negative (DMSO) and positive control values were used for the calculation of the respective assay window (S/B) and Z′ values. The median of the respective control values was used for calculation of percent inhibition according to the following equation: […]
Percentage inhibition was then plotted against compound concentration, and the 50% inhibitory concentration (IC50) was determined from the resultant concentration-response curve.
Fold selectivity between CTPS1 and CTPS2 was subsequently calculated according to the following equation: […]

SMILES	Selectivity (fold selectivity between CTPS1 and CTPS2)
CCOc1cncc(-c2ccc(NC(=O)C(F)(CC)c3ccnc(NS(=O)(=O)C4CC4)n3)nc2)n1 (racemic) [Example P112, 2-(2-(Cyclopropanesulfonamido)pyrimidin-4-yl)-N-(5-(6-ethoxypyrazin-2-yl)pyridin-2-yl)-2-fluorobutanamide]	++ (>30-60 fold (++))
CCOc1cncc(-c2ccc(NC(=O)C(F)(CC)c3ccnc(NS(=O)(=O)C4CC4)n3)nc2)n1 (single isomer, unassigned) [Example P113, 2-(2-(cyclopropanesulfonamido)pyrimidin-4-yl)-N-(5-(6-ethoxypyrazin-2-yl)pyridin-2-yl)-2-fluorobutanamide]	+ (2-30 fold (+))
CCOc1cncc(-c2ccc(NC(=O)C(F)(CC)c3ccnc(NS(=O)(=O)C4CC4)n3)nc2)n1 (single isomer, unassigned) [Example P114, 2-(2-(cyclopropanesulfonamido)pyrimidin-4-yl)-N-(5-(6-ethoxypyrazin-2-yl)pyridin-2-yl)-2-fluorobutanamide]	+++ (>60 fold (+++))
CCOc1cncc(-c2ccc(NC(=O)C(F)(CC)c3cncc(NS(=O)(=O)C4CC4)n3)nc2)n1 (single isomer, unassigned) [Example P206]	+++ (>60 fold (+++))
CCOc1cncc(-c2ccc(NC(=O)C(F)(CC)c3cncc(NS(=O)(=O)C4CC4)n3)nc2)n1 (single isomer, unassigned) [Example P207]	+ (2-30 fold (+))
CCC(C(=O)Nc1ccc(-c2cncc(Cl)c2)cc1)c1ccnc(NS(=O)(=O)C2CC2)n1 (stereo not shown) [Example P1, N-(4-(5-Chloropyridin-3-yl)phenyl)-2-(2-(cyclopropanesulfonamido)pyrimidin-4-yl)butanamide]	+ (2-30 fold (+))
CCOc1cncc(-c2ccc(NC(=O)C3(c4ccnc(NS(=O)(=O)C5CC5)n4)CCCC3)cc2)n1 [Example P2, 1-(2-(Cyclopropanesulfonamido)pyrimidin-4-yl)-N-(4-(6-ethoxypyrazin-2-yl)phenyl)cyclopentanecarboxamide]	+++ (>60 fold (+++))
CC(C)Oc1cncc(-c2ccc(NC(=O)Cc3ccnc(NS(=O)(=O)C4CC4)n3)c(F)c2)n1 [Example P12]	++ (>30-60 fold (++))
O=C(Cc1ccnc(NS(=O)(=O)C2CC2)n1)Nc1ccc(-c2cccnc2)cc1 [Example P16]	++ (>30-60 fold (++))
CCOc1cncc(-c2ccc(NC(=O)Cc3ccnc(NS(=O)(=O)C4CC4)n3)cc2)n1 [Example P18, 2-(2-(Cyclopropanesulfonamido)pyrimidin-4-yl)-N-(4-(6-ethoxypyrazin-2-yl)phenyl)acetamide]	++ (>30-60 fold (++))
CC(C)Oc1cncc(-c2ccc(NC(=O)Cc3ccnc(NS(=O)(=O)C4CC4)n3)cc2)n1 [Example P21]	++ (>30-60 fold (++))
CCOc1cncc(-c2ccc(NC(=O)C(C)(C)c3ccnc(NS(=O)(=O)C4CC4)n3)nc2)n1 [Example P31]	+++ (>60 fold (+++))
CCOc1cncc(-c2ccc(NC(=O)C(C)(C)c3ccnc(NS(=O)(=O)C4CC4)n3)c(C#N)c2)n1 [Example P34]	+ (2-30 fold (+))
CCOc1cncc(-c2ccc(NC(=O)C(C)(C)c3ccnc(NS(=O)(=O)C4CC4)n3)c(F)c2)n1 [Example P38]	+ (2-30 fold (+))
CC(C)Oc1cncc(-c2ccc(NC(=O)C(C)(C)c3ccnc(NS(=O)(=O)C4CC4)n3)c(F)c2)n1 [Example P39]	+ (2-30 fold (+))
CC(C)(C(=O)Nc1ccc(-c2cccnc2)cc1)c1ccnc(NS(=O)(=O)C2CC2)n1 [Example P59]	+ (2-30 fold (+))
CCOc1cncc(-c2ccc(NC(=O)C(C)(C)c3nc(NS(=O)(=O)C4CC4)ncc3F)cc2)n1 [Example P68]	++ (>30-60 fold (++))
CCOc1cncc(-c2ccc(NC(=O)C(C)(C)c3nc(NS(=O)(=O)C4CC4)ncc3C)cc2)n1 [Example P70]	+ (2-30 fold (+))
CCOc1cncc(-c2ccc(NC(=O)C(C)(C)c3ccnc(NS(=O)(=O)CC)n3)cc2)n1 [Example P74]	++ (>30-60 fold (++))
CCOc1cncc(-c2ccc(NC(=O)C(C)(C)c3ccnc(NS(C)(=O)=O)n3)nc2)n1 [Example P76]	++ (>30-60 fold (++))
CCOc1cncc(-c2ccc(NC(=O)C3(c4ccnc(NS(=O)(=O)C5CC5)n4)CC3)cc2)n1 [Example P83]	+++ (>60 fold (+++))
CCC(C(=O)Nc1ccc(-c2cncc(C(F)(F)F)n2)cn1)c1ccnc(NS(=O)(=O)C2CC2)n1 (stereo not shown) [Example P87]	++ (>30-60 fold (++))
CCOc1cncc(-c2ccc(NC(=O)C(CC)c3ccnc(NS(=O)(=O)C4CC4)n3)nc2)n1 (stereo not shown) [Example P88]	+++ (>60 fold (+++))
CCC(C(=O)Nc1ccc(-c2cncc(OC(C)C)n2)cn1)c1ccnc(NS(=O)(=O)C2CC2)n1 (stereo not shown) [Example P89]	+++ (>60 fold (+++))
CCC(C(=O)Nc1ccc(-c2cncc(OC)n2)cc1F)c1ccnc(NS(=O)(=O)C2CC2)n1 (stereo not shown) [Example P95]	+ (2-30 fold (+))
CCOc1cncc(-c2ccc(NC(=O)C(CC)c3ccnc(NS(=O)(=O)C4CC4)n3)c(F)c2)n1 (stereo not shown) [Example P96]	+ (2-30 fold (+))
CCC(C(=O)Nc1ccc(-c2cncc(OCC(F)(F)F)n2)cc1F)c1ccnc(NS(=O)(=O)C2CC2)n1 (stereo not shown) [Example P98]	+++ (>60 fold (+++))
CCC(C(=O)Nc1ccc(-c2cncc(C(F)(F)F)n2)cc1)c1ccnc(NS(=O)(=O)C2CC2)n1 (stereo not shown) [Example P103]	+ (2-30 fold (+))
CCOc1cncc(-c2ccc(NC(=O)C(CC)c3ccnc(NS(=O)(=O)C4CC4)n3)cc2)n1 (stereo not shown) [Example P105, 2-(2-(Cyclopropanesulfonamido)pyrimidin-4-yl)-N-(4-(6-ethoxypyrazin-2-yl)phenyl)butanamide]	++ (>30-60 fold (++))
CCC(C(=O)Nc1ccc(-c2cncc(OCC(F)(F)F)n2)cc1)c1ccnc(NS(=O)(=O)C2CC2)n1 (stereo not shown) [Example P108]	+++ (>60 fold (+++))

same assay, conditions: Table 27; RapidFire/MS IC50 ratio

SMILES	Selectivity (fold selectivity between CTPS1 and CTPS2)
CCOc1cncc(-c2ccc(NC(=O)C3(c4ccnc(NS(=O)(=O)C5CC5)n4)CCC(O)CC3)nc2)n1 (single isomer, unassigned) [Example P227, 1-(2-(cyclopropanesulfonamido)pyrimidin-4-yl)-N-(5-(6-ethoxypyrazin-2-yl)pyridin-2-yl)-4-hydroxycyclohexanecarboxamide]	+++ (>60 fold (+++))
CCOc1cncc(-c2ccc(NC(=O)C3(c4ccnc(NS(=O)(=O)C5CC5)n4)CCC(O)CC3)nc2)n1 (single isomer, unassigned) [Example P228, 1-(2-(cyclopropanesulfonamido)pyrimidin-4-yl)-N-(5-(6-ethoxypyrazin-2-yl)pyridin-2-yl)-4-hydroxycyclohexanecarboxamide]	+ (2-30 fold (+))
CCOc1cncc(-c2ccc(NC(=O)C3(c4ccnc(NS(=O)(=O)C5CC5)n4)CCC(N(C)C)CC3)nc2)n1 (single isomer, unassigned) [Example P229, 1-(2-(cyclopropanesulfonamido)pyrimidin-4-yl)-4-(dimethylamino)-N-(5-(6-ethoxypyrazin-2-yl)pyridin-2-yl)cyclohexane-1-carboxamide]	+++ (>60 fold (+++))
CCOc1cncc(-c2ccc(NC(=O)C3(c4ccnc(NS(=O)(=O)C5CC5)n4)CCC(N(C)C)CC3)nc2)n1 (single isomer, unassigned) [Example P230, 1-(2-(cyclopropanesulfonamido)pyrimidin-4-yl)-4-(dimethylamino)-N-(5-(6-ethoxypyrazin-2-yl)pyridin-2-yl)cyclohexane-1-carboxamide]	+++ (>60 fold (+++))
